Data from ChEMBL document CHEMBL4715821, “Discovery of 4-ethoxy-7H-pyrrolo[2,3-d]pyrimidin-2-amines as potent, selective and orally bioavailable LRRK2 inhibitors” (Bioorg Med Chem Lett, 2018).

How the values were obtained:
[1] = target: Dual specificity tyrosine-phosphorylation-regulated kinase 3 (Homo sapiens) (UniProt O43781); assay: Inhibition of DYRK3 (unknown origin) assessed as residual activity at 1 uM by Kinomescan method relative to control
[2] = Unbound fraction in human serum; type: ADME, cell-free
[3] = target: RAC-gamma serine/threonine-protein kinase (Homo sapiens) (UniProt Q9Y243); assay: Inhibition of wild-type human partial length AKT3 expressed in bacterial expression system assessed as residual activity at 1 uM by Kinomescan method relative to control
[4] = target: Mitogen-activated protein kinase kinase kinase 5 (Homo sapiens) (UniProt Q99683); assay: Inhibition of wild-type human partial length ASK1 (E648 to S964 residues) expressed in bacterial expression system assessed as residual activity at 1 uM by Kinomescan method relative to control
[5] = target: Tyrosine-protein kinase Blk (Homo sapiens) (UniProt P51451); assay: Inhibition of wild-type human partial length BLK (G211 to L503 residues) expressed in bacterial expression system assessed as residual activity at 1 uM by Kinomescan method relative to control
[6] = target: Calcium/calmodulin-dependent protein kinase type 1 (Homo sapiens) (UniProt Q14012); assay: Inhibition of wild-type human full length CAMK1A (M1 to L370 residues) expressed in bacterial expression system assessed as residual activity at 1 uM by Kinomescan method relative to control
[7] = target: Cyclin-dependent kinase 1/cyclin B1 (Homo sapiens) (UniProt P06493+P14635); assay: Inhibition of wild-type human full length CDK1 (M1 to M297 residues)/Cyclin B expressed in mammalian expression system assessed as residual activity at 1 uM by Kinomescan method relative to control
[8] = target: CDK4/Cyclin D3 (Homo sapiens) (UniProt P11802+P30281); assay: Inhibition of wild-type human full length CDK4/cyclinD3 (M1 to E303 residues) expressed in mammalian expression system assessed as residual activity at 1 uM by Kinomescan method relative to control
[9] = target: Myotonin-protein kinase (Homo sapiens) (UniProt Q09013); assay: Inhibition of wild-type human partial length DMPK (V47 to V415 residues) expressed in bacterial expression system assessed as residual activity at 1 uM by Kinomescan method relative to control
[10] = target: Ephrin type-B receptor 4 (Homo sapiens) (UniProt P54760); assay: Inhibition of wild-type human partial length EPHB4 (H585 to G892 residues) expressed in bacterial expression system assessed as residual activity at 1 uM by Kinomescan method relative to control
[11] = target: Receptor tyrosine-protein kinase erbB-2 (Homo sapiens) (UniProt P04626); assay: Inhibition of wild-type human partial length ERBB2 (K646 to V1225 residues) expressed in mammalian expression system assessed as residual activity at 1 uM by Kinomescan method relative to control
[12] = target: Vascular endothelial growth factor receptor 3 (Homo sapiens) (UniProt P35916); assay: Inhibition of wild-type human partial length FLT4 (E821 to E1196 residues) expressed in bacterial expression system assessed as residual activity at 1 uM by Kinomescan method relative to control
[13] = target: Insulin-like growth factor 1 receptor (Homo sapiens) (UniProt P08069); assay: Inhibition of wild-type human partial length IGF1R (L972 to D1294 residues) expressed in bacterial expression system assessed as residual activity at 1 uM by Kinomescan method relative to control
[14] = target: Tyrosine-protein kinase JAK1 (Homo sapiens) (UniProt P23458); assay: Inhibition of wild-type human partial length JAK1 JH2 pseudokinase domain (R537 to D855 residues) expressed in mammalian expression system assessed as residual activity at 1 uM by Kinomescan method relative to control
[15] = target: Serine/threonine-protein kinase 10 (Homo sapiens) (UniProt O94804); assay: Inhibition of wild-type human partial length LOK (E16 to V314 residues) expressed in bacterial expression system assessed as residual activity at 1 uM by Kinomescan method relative to control
[16] = target: Serine/threonine-protein kinase PAK 6 (Homo sapiens) (UniProt Q9NQU5); assay: Inhibition of wild-type human partial length PAK6 (N298 to C681 residues) expressed in bacterial expression system assessed as residual activity at 1 uM by Kinomescan method relative to control
[17] = target: Protein kinase C beta type (Homo sapiens) (UniProt P05771); assay: Inhibition of PKCbeta2 (unknown origin) assessed as residual activity at 1 uM by Kinomescan method relative to control
[18] = target: Serine/threonine-protein kinase D3 (Homo sapiens) (UniProt O94806); assay: Inhibition of wild-type human partial length PRKD3 (S543 to E863 residues) expressed in bacterial expression system assessed as residual activity at 1 uM by Kinomescan method relative to control
[19] = target: cGMP-dependent protein kinase 2 (Homo sapiens) (UniProt Q13237); assay: Inhibition of wild-type human partial length PRKG2 (S422 to F762 residues) expressed in mammalian expression system assessed as residual activity at 1 uM by Kinomescan method relative to control
[20] = target: Serine/threonine-protein kinase N2 (Homo sapiens) (UniProt Q16513); assay: Inhibition of wild-type human partial length PKN2 (E634 to C984 residues) expressed in bacterial expression system assessed as residual activity at 1 uM by Kinomescan method relative to control
[21] = target: cAMP-dependent protein kinase catalytic subunit PRKX (Homo sapiens) (UniProt P51817); assay: Inhibition of wild-type human partial length PRKX (M1 to F358 residues) expressed in bacterial expression system assessed as residual activity at 1 uM by Kinomescan method relative to control
[22] = target: Tyrosine-protein kinase Tec (Homo sapiens) (UniProt P42680); assay: Inhibition of wild-type human partial length TEC (L341 to D620 residues) expressed in bacterial expression system assessed as residual activity at 1 uM by Kinomescan method relative to control
[23] = target: Serine/threonine-protein kinase ULK3 (Homo sapiens) (UniProt Q6PHR2); assay: Inhibition of wild-type human partial length ULK3 (M1 to Q290 residues) expressed in mammalian expression system assessed as residual activity at 1 uM by Kinomescan method relative to control
[24] = target: Serine/threonine-protein kinase VRK1 (Homo sapiens) (UniProt Q99986); assay: Inhibition of VRK1 (unknown origin) assessed as residual activity at 1 uM by Kinomescan method relative to control
[25] = target: Protein-tyrosine kinase 6 (Homo sapiens) (UniProt Q13882); assay: Inhibition of wild-type human partial length BRK (L166 to T451 residues) expressed in bacterial expression system assessed as residual activity at 1 uM by Kinomescan method relative to control
[26] = target: Mitogen-activated protein kinase kinase kinase 12 (Homo sapiens) (UniProt Q12852); assay: Inhibition of wild-type human full length DLK (M1 to P859 residues) expressed in mammalian expression system assessed as residual activity at 1 uM by Kinomescan method relative to control

CCOc1nc(Nc2ccc(C(=O)N3CCOCC3)cc2OC)nc2[nH]ccc12
Activity [1]: 96.4%
fraction unbound [2]: 0.059
Activity [3]: 98.8%
Activity [4]: 92.2%
Activity [5]: 114%
Activity [6]: 85.9%
Activity [7]: 92.2%
Activity [8]: 92.8%
Activity [9]: 103%
Activity [10]: 96.3%
Activity [11]: 110%
Activity [12]: 106%
Activity [13]: 45.4%
Activity [14]: 97.3%
Activity [15]: 92.7%
Activity [16]: 99.2%
Activity [17]: 89.1%
Activity [18]: 63.7%
Activity [19]: 104%
Activity [20]: 101%
Activity [21]: 99.8%
Activity [22]: 99.3%
Activity [23]: 82%
Activity [24]: 86.7%
Activity [25]: 45.6%
Activity [26]: 93.9%
